Molecular target: T1, human aldehyde reductase (hALR1) (Homo sapiens, UniProt P14550)
T1 sequence (P14550 1-325): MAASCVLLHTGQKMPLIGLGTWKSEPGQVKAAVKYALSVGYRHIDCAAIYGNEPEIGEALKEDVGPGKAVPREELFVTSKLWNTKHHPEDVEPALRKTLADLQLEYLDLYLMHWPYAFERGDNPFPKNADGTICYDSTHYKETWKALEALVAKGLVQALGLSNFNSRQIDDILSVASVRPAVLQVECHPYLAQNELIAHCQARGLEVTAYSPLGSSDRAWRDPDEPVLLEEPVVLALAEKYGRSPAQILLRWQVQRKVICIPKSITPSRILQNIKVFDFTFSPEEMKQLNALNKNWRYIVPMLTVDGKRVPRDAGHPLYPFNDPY
Experiment: human aldehyde reductase (hALR1) inhibition
Type: biochemical
Method: In a second assay, a number of the same compounds were tested for their ability to inhibit aldehyde reductase (hALR1), a structurally related enzyme.

IC50: > 100 nM
Structure (SMILES): O=C(O)Cn1cc(Cc2nc3c(F)c(F)cc(F)c3s2)c2ccc(N3CCOCC3)cc21 [Example 18, 6-morpholino-3-(4,5,7-trifluorobenzothiazol-2-yl)methyl-indole-N-acetic acid]

From patent US7304079B2, “Substituted indolealkanoic acids” (The Institute for Pharmaceutical Discovery, LLC, priority 1998, dated 2007)
